Reference: PubChem BioAssay AID1996
Values after ≈ are worked out from the molar mass of the structure shown.

Conditions: buffer; pH 7.4; 200.0 µM

solubility kinetic [µg/mL]	SMILES
> 46.4	Cc1nnc(SCC(=O)Nc2ccccc2F)n(N)c1=O
> 42.9	O=C(CSc1nccc(=O)[nH]1)c1cc2ccccc2o1
> 50.8	COCCCNC(=O)Cc1ccc(-n2c(C)nc3cccnc32)cc1
1.6	Cl.OC(CNCc1ccc(-c2ccccc2)cc1)c1ccccc1 (stereo not given)
31.6 (≈ 89.9 µM)	COC(=O)C1C(O)=C(C=Nc2cccc3ccccc23)C(=O)CC1(C)C (stereo not given)
1.8 (≈ 4.51 µM)	COC(=O)c1cc(NC(=S)NC(=O)c2ccccc2)ccc1N1CCOCC1
2 (≈ 6.53 µM)	O=C(COC(=O)c1cccs1)Nc1ccccc1[N+](=O)[O-]
< 0.6	CCc1nc2oc3ccc(C)cc3c(=O)c2cc1C(=O)OC
> 60	Cl.O=C(NCC(c1ccc(F)cc1)N1CCOCC1)c1ccc([N+](=O)[O-])o1 (stereo not given)
39.3 (≈ 146 µM)	CCC(C(=O)Nc1cc(C)cc(C)n1)c1ccccc1 (stereo not given)
> 39.9	COc1cc(OC)cc(C(=O)NN2CCOCC2)c1
> 42.6	O=[N+]([O-])c1ccc(-n2cnc3ccccc32)c([N+](=O)[O-])c1
1.9 (≈ 6.98 µM)	COC(=O)CSc1nc2ccc(C)cc2cc1C#N
5.2 (≈ 17 µM)	Cc1ccc(CONS(=O)(=O)c2cc(C)ccc2C)cc1
30.6 (≈ 124 µM)	CCN1CCN(C(C)CCc2ccccc2)CC1 (stereo not given)
1.4 (≈ 4.41 µM)	O=C(Nc1ccc(Br)cn1)c1ccc(Cl)s1
14.4 (≈ 33.5 µM)	COC(=O)CN(c1nc(C)c(Br)c(OC)n1)S(=O)(=O)c1ccccc1
37.1 (≈ 135 µM)	O=C(NC1=NCCS1)c1cc(Cl)ccc1Cl
> 38.9	Cc1ccc(NC(=O)Cn2ccc(=O)[nH]c2=O)cc1
> 42.2	CCOc1ccccc1CNS(=O)(=O)c1cnc[nH]1
7.5 (≈ 20.8 µM)	O=C(Nc1ccccc1)c1ccccc1NC(=O)c1ccccc1[N+](=O)[O-]
46 (≈ 146 µM)	CCC(C)NC(=O)c1cc2c(=O)n3cccc(C)c3nc2s1 (stereo not given)
41.6 (≈ 127 µM)	Cc1cc(C(=O)NC(Cc2c[nH]c3ccccc23)C(=O)O)c(C)o1 (stereo not given)

solubility kinetic [µg/mL]	SMILES
< 0.3	COc1cccc(OC)c1OC(=O)c1cnccn1
3.6 (≈ 7.62 µM)	Cc1ccc(NC(=O)c2oc3ccccc3c2COC(C)C)cc1S(=O)(=O)N1CCOCC1
47.6 (≈ 140 µM)	CC(C)OC(=O)c1cc2c(=O)[nH]c(C(Cl)(Cl)Cl)nc2o1
> 50	O=C(CCNC(=O)c1ccc([N+](=O)[O-])cc1)NCc1cccs1
> 37.4	Cc1cc(N)ccc1NC(=O)CN1CCOCC1
> 47.7	NC(=O)NC(=O)CN1C(=O)NC2(CCOc3ccccc32)C1=O (stereo not given)
17.6 (≈ 107 µM)	Nc1nc(N)c2c(n1)CCCC2
43.1 (≈ 138 µM)	CC1Cc2ccccc2N1C(=O)COc1ccc2c(c1)OCO2 (stereo not given)
> 36	O=C(CCc1ccccc1)NCc1ccncc1
> 40.2	COCCOC(=O)c1sc2nc[nH]c(=O)c2c1C
> 46.5	CSc1ccc(CNCC(O)c2ccccc2)cc1.Cl (stereo not given)
7.7 (≈ 17 µM)	CCCn1c(N)c(N2CCCCC2)c(=O)n(CC(=O)Nc2ccccc2C(F)(F)F)c1=O
> 50	O=C(COC(=O)C1C2CC3OC(=O)C1C3C2)Nc1ccc(F)cc1 (stereo not given)
37.6 (≈ 137 µM)	O=C(O)CNC(=O)/C=C/c1ccc(Cl)cc1Cl
0.6 (≈ 1.88 µM)	Cc1cccc(NC(=S)NCCc2ccc(Cl)cc2)c1C
> 57.1	Cc1ccc(NC(=O)c2ccc(NC(=O)C3CCCCC3C(=O)O)cc2)cc1 (stereo not given)
42.4 (≈ 116 µM)	CS(=O)(=O)Nc1ccc(C(=O)Nc2ccccc2-c2ccccc2)cc1
> 47.5	CC(CN1CCN(C)CC1)OC(=O)c1cccc(F)c1.Cl (stereo not given)
0.9 (≈ 2.7 µM)	O=C(Nc1ccc2oc(-c3ccncc3)nc2c1)c1ccc(F)cc1
> 53	COC(=O)/C(C#N)=C/c1c(N2CCN(C)CC2)nc2ccccn2c1=O
> 36.3	Cl.NC(N)=NC(N)=NCCc1ccccc1
11.5 (≈ 36.6 µM)	Cc1cc(C)c(N=C2SCC(=O)N2Cc2ccco2)c(C)c1
7 (≈ 21.3 µM)	COc1ccccc1NC(=O)CCn1c(=S)oc2ccccc21

Further lines, the compound ahead of its results:

SMILES	solubility kinetic [µg/mL]
CS(=O)(=O)Nc1ccc(-c2cn3c(n2)SCC3)cc1	43.6 (≈ 148 µM)
Cl.O=C(Nc1cccc(F)c1)[C@@H]1CCCN1	> 36.7
Cc1c(C(=O)O)cc(C(C)(C)C)n1CCSCCO	38.8 (≈ 136 µM)
Cc1cc(C(=O)O)ccc1NCc1ccncc1	> 36.3
COc1ccc(C(=O)CC(=O)C(=O)Nc2cc(C)ccc2C)cc1	11.2 (≈ 34.4 µM)
Cc1ccc(-n2c(C)c(C)c3c(NCCO)ncnc32)cc1	> 44.5
Cc1cc(=O)[nH]c(Nc2cccc(Br)c2)n1	> 42
CCC(C)C12CN3CCN(CC(C)(C3)C1O)C2 (stereo not given)	> 35.8
COc1cc(/C=C/C(=O)OCC(=O)N(C)Cc2ccccc2)cc(OC)c1OC	> 59.9
Cc1ccc(S(=O)(=O)NC(=O)Nc2ccccc2)cc1	41.8 (≈ 144 µM)
COC(=O)c1ccc(COC(=O)CNC(=O)c2ccc(OC)cc2)cc1	17.3 (≈ 48.4 µM)
CNc1ccc(OC)cc1-n1cnc(-c2ccc([N+](=O)[O-])cc2)c1	0.6 (≈ 1.85 µM)
CCS(=O)(=O)C(C)(CCl)C(=O)Nc1ccc(C(=O)OC)cc1 (stereo not given)	> 52.2
Cc1ccccc1NC(=O)CN1C(=O)c2ccccc2C1=O	8.5 (≈ 28.9 µM)
Cc1c(N(C)CS(=O)(=O)O)c(=O)n(-c2ccccc2)n1C.[Na]	> 50.2
Cl.O=C(CCCN1CCOC(c2ccccc2)C1)c1ccc(F)cc1 (stereo not given)	50.3
N#C/C(=C\c1c[nH]c2ccccc12)C(=O)NC1CCCC1	1.8 (≈ 6.44 µM)
OC(CN1CCN(c2ccc(C(F)(F)F)cn2)CC1)c1ccccc1 (stereo not given)	1.8 (≈ 5.12 µM)
Cc1cc2cc(CNC(=O)Cc3ccc([N+](=O)[O-])cc3)ccc2[nH]1	6.9 (≈ 21.3 µM)
O=C(CCNC(=O)c1ccc([N+](=O)[O-])cc1)Nc1ccc(F)cc1	21.8 (≈ 65.8 µM)

SMILES	solubility kinetic [µg/mL]
O=C(O)CCc1ccc(-c2ccccc2)n1-c1ccc(C(=O)O)cc1	47 (≈ 140 µM)
N#Cc1cccc(C(=O)N(CCc2ccccc2)Cc2cccs2)c1	12.9 (≈ 37.2 µM)
Nc1nc(NCc2ccccc2)nc(NCCO)c1[N+](=O)[O-]	43.4 (≈ 143 µM)
O=C(/C=C(\O)c1ccccc1)C(=O)NNC(=O)c1ccccc1	> 46.5
COC(=O)c1ccc(NC(=S)N2CCCC2)cc1	> 39.7
CCOC(=O)C1=C(C)NC(C)=C(C(=O)OCC)C1c1ccco1	8.8 (≈ 27.6 µM)
O=S(=O)(c1ccc(F)cc1)N1CCN(CCc2ccccc2)CC1	4.1 (≈ 11.8 µM)
COc1ccc(C(=O)NCCc2cnc[nH]2)cc1OC	> 41.3
COc1ccc2c(c1)C(=O)N(c1ccc(C)cc1C)C(=O)C2(C)C	5.3 (≈ 16.4 µM)
Cc1ccc(NC(=O)CCOc2ccccc2C)cc1F	2.5 (≈ 8.7 µM)
COc1ccc(C(=O)NC(C)CCc2ccccc2)c(OC)c1 (stereo not given)	41.5 (≈ 132 µM)
Cc1ccc(O)c(CNc2nc3ccccc3n2C(C)C)c1	0.6 (≈ 2.03 µM)
O=Cc1cn(Cc2ccc(Br)cc2)c2ccccc12	< 0.7
O=S(=O)(c1ccccc1)c1nc(NC2CC2)sc1Cl	42.8 (≈ 136 µM)
CN1CCN(CC#CCC(O)(c2ccccc2)c2ccccc2)CC1.Cl	> 55.6
CC(C)n1c(NCCO)nc2ccccc21	> 32.9
CC(Oc1ccc(Cl)cc1)C(=O)N1CCCc2ccccc21 (stereo not given)	2.1 (≈ 6.65 µM)
COC(=O)CC1C(=O)NCCN1C(=O)c1cc([N+](=O)[O-])ccc1Cl (stereo not given)	52.9 (≈ 149 µM)
O=C(Nc1ccc(C2SCCS2)cc1)c1ccccc1	1.4 (≈ 4.64 µM)
